According to patent US9567318B2, “Substituted pyrimidine compounds and uses thereof” (Memorial Sloan-Kettering Cancer Center, priority 2009, dated 2017):

Tests used:
Assay type in all cases: cell-based, human
[1] = test system: Kasumi-1 acute myeloid leukemia cells; test: Growth Inhibition Assay (Alamar blue), Kasumi-1; conditions: Kasumi-1 cells
How it was run: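 Adherent SKBr3 cells seeded at 8,000/well and suspension Kasumi-1 cells at 20,000/well, rested 24 h at 37 °C, then treated in triplicate for 72 h. Viability read by Alamar blue (440 µM) fluorescence (ex 530/em 580 nm) after 6 h; growth inhibition calculated versus untreated controls, corrected for the time-zero cell population.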

[2] = test system: HER2, Raf-1, Akt, Hsp70 in SKBr3 cells; test: Western blotting of Hsp90 onco-client proteins and Hsp70 in SKBr3 cells
Protocol: FIG. 3. Testing strategy for the discovery of YK5. a, b) SKBr3 cells were treated for 24 h with the indicated concentrations of inhibitors and cells were lysed for western blot (WB) analysis. β-actin was used as loading control. The data are consistent with those obtained from multiple repeat experiments (n≧3). c) The ability of the indicated inhibitors to compete with GM-Cy3B for Hsp90 binding in SKBr3 cell extracts was examined by fluorescence polarization. Values recorded in wells with added inhibitor were normalized to values read in control wells and plotted against the concentration of tested inhibitor. Drugs were assayed in triplicate. All compounds were used as DMSO stocks. Points, mean; bars, s.d. d) Growth inhibition: SKBr3 cells were incubated in triplicate with increasing concentrations of compound and growth over 72 h was assessed. Y-axis values below 0% represent cell death of the starting population. HER2 degradation was analyzed as in panel a), and gels were quantified by densitometry. Recorded values were normalized to control (vehicle only treated cells) and data graphed against YK5 concentration. Error bars represent the s.d. of the mean (n=3).
FIG. 8. […] Points, mean; bars, s.d. Yaxis values below 0% represent cell death of the starting population. c) Streptavidin beads (50 μl) were incubated with the indicated concentrations of YK55, YK56 or D-biotin to immobilize the corresponding compounds on beads. Beads (50 μl) were probed with SKBr3 cell extracts (500 μg), and the precipitated Hsp70 analyzed by western blot and quantified by […]. Results from three independent experiments were graphed to determine the relative binding affinity of YKs. Points, mean; bars, s.d. d) Structure of representative YKs. YK55 and YK56 are the biotinylated derivatives of YK54 and YK57, respectively.
FIG. 9. […] Cells were treated for 24 h with the indicated concentrations of YK149 and YK5. Cells were lysed and proteins analyzed by western blotting. b) Examples of the compounds of the present subject matter inhibit the activity of the oncogenic STAT3 in the triple-negative breast cancer cells MDA-MB-468. Cells were treated for the indicated times with compounds or vehicle and proteins analyzed by western blot. (c) Examples of the compounds of the present subject matter dose-dependently induce apoptosis in the acute myeloid leukemia cells MOLM13. Cells were treated for 24 h with the indicated concentration of compounds and the increase in caspase3,7 activity was measured and compared to only vehicle (DMSO) treated cells. Caspase-3,7 activity was a measure of compound potency in cleaving the caspase substrate Z-DEVD-R110 and releasing rhodamine. The percentage increase in apoptotic cells was calculated by comparing the fluorescence readings obtained from compounds with those obtained from vehicle (DMSO)-treated cells.
Western Blotting. Cells were grown to 60-70% confluence and treated with inhibitor or DMSO vehicle for the indicated times. Protein lysates were prepared in 50 mM Tris pH 7.4, 150 mM NaCl and 1% NP-40 lysis buffer. Protein concentrations were measured using the BCA kit (Pierce) according to the manufacturer's instructions. […]

[3] = test system: MDA-MB-468, SKBr3, LNCaP, MOLM-13, Kasumi-1, OCI-Ly7 and HuH7 cells; test: Growth inhibition in a panel of cancer cells; conditions: growth over 72 h
Protocol: Tested were MDA-MB-468 triple-negative breast cancer cells, SKBr3 HER2+breast cancer cells, LNCaP mAR+prostate cancer cells, MOLM-13 and Kasumi-1 acute myeloid leukemia cells, OCI-Ly7 diffuse large B-cell lymphoma cells and HuH7 hepatocellular carcinoma cells. […] In cancer cells, half growth inhibitory concentrations ([…]) recorded for YK5 were in high agreement with its potency to degrade Hsp90 onco-clients.
Growth Inhibition Assay. Antiproliferative effects of inhibitors were evaluated using the dye Alamar blue. This reagent offers a rapid objective measure of cell viability in cell culture, and it uses the indicator dye resazurin to measure the metabolic capacity of cells, an indicator of cell viability. Briefly, cells were plated on Costar 96-well plates. For attached cells (such as SKBr3, MDA-MB-468, LNCaP, MRCS), 8,000 cells/well were used. For suspension cells (such as MOLM-13, Kasumi-1, OCI-Ly7, PBL), 20,000 cells/well were plated. Cells were allowed to incubate for 24 h at 37° C. before drug treatment. Drugs were added in triplicates at the indicated concentrations, and the plate was incubated for 72 h. Alamar Blue (440 μM) was added, and the plate read 6 h later using the Analyst GT (Fluorescence intensity mode, excitation 530 nm, emission 580 nm, with 560=dichroic mirror). Results were analyzed using the Softmax Pro software. The percentage cell growth inhibition was calculated by comparing fluorescence readings obtained from treated versus control cells, accounting for initial cell population (time zero).

[4] = test system: Kasumi-1 cells; test: Apoptosis, acridine orange/ethidium bromide, Kasumi-1; conditions: 10 μM, 24 h
Protocol: FIG. 13. YK5 has a higher apoptotic effect than Hsp90 inhibitors in select tumors. (a-d) Cells were treated with the indicated concentrations of inhibitors for the times presented. (a,b) Apoptotic cells were quantified by dual acridine orange/ethidium bromide staining as described in Methods. (c,d) Molecular markers of apoptosis (PARP cleavage) were analyzed in cells treated for 24 h with indicated concentrations of inhibitors (c) or for the indicated times with the indicated concentration of inhibitors (d) by western blotting. (e) MDAMB-468 cells were treated with vehicle, TNFα (20 ng/ml), YK5 (1 μM), pretreated with YK5 for 2 h before TNFα or co-treated, and cells were lysed for western blot analysis (left), or cell death was quantified by analyzing the hypodiploid population upon propidium iodine staining (right). […]
To determine whether cell death by YK5 was attributable to apoptosis, cells were treated with YK5 and effects on morphology, as well as on several effectors and mediators of apoptosis were analyzed (FIG. 13). To quantify the number of cells undergoing apoptosis, cells were stained with acridine orange/ethidium bromide (AO/EB) and analyzed under a fluorescence microscope for the percentage of viable, apoptotic (early and late) and necrotic cells. […]
Apoptosis-Acridine Orange/Ethidium Bromide. […] Percentage of apoptotic cells was determined from 200-300 cells counted in each group.

Row | Compound | IC50 ([1]; Homo sapiens, Kasumi 1, 72 h) | IC50 ([1]; 72 h) | degradation of Hsp90 onco-client proteins (HER2, Raf-1, Akt) ([2]; SKBr3 cells, 24 h, western blot) | growth of all tested cancer cells [3] | feed-back induction of Hsp70 (heat shock response) ([2]; SKBr3 cells, 24 h) | lowering of biological activity, ethylamide versus acrylamide YK30 ([2]; FIG. 8a, relative to YK30) | cells undergoing apoptosis [4]
1 | COc1nc(N2CCN(C)CC2)nc(OC)c1Sc1cccc(NC(=O)CN)c1 [YK149, 2-amino-N-(3-(4,6-dimethoxy-2-(4-methylpiperazin-1-yl)pyrimidin-5-ylthio)phenyl)acetamide] | 13.9 µM | 21 µM | dose-dependently reduce the steady-state levels of HER2 and Raf-1 |  |  |  | 
2 | CC(C)NCCCn1c(Sc2cc3c(cc2I)OCO3)nc2c(N)ncnc21 [PU-H71, reference compound] |  |  |  | inhibited the growth of all tested cancer cells | potently activated a heat shock response |  | 
3 | CCOc1nc(N2CCN(C)CC2)nc(OCC)c1Sc1nc(N)cc(NC(=O)CC)n1 [YK31, N-(6-amino-2-(4,6-diethoxy-2-(4-methylpiperazin-1-yl)pyrimidin-5-ylthio)pyrimidin-4-yl)propionamide] | 34.1 µM |  |  |  |  | 30 fold | 
4 | C#CCCCn1c(Cc2cc(OC)c(OC)c(OC)c2Cl)nc2c(N)nc(F)nc21 [PU24FCl, reference compound] |  |  |  | inhibited the growth of all tested cancer cells | potently activated a heat shock response |  | 9%
